Source: patent US6875761B2 (Eisai Co., Ltd., priority 1997, dated 2005)
Structures can show the parent of a compound that is named as a salt.

Tests used:
serotonin 1A receptor = biological target: T1, serotonin 1A receptor (Rattus norvegicus, UniProt P19327); experiment: Binding test on [3H] 8-hydroxy-dipropylaminotetralin, hippocampus receptor fraction; parameters: species or system SD rats; details: rat hippocampus receptor fraction, 0.5 nM [3H] 8-OH-DPAT, room temperature 30 min; read-out: 5HT1
T1 construct: To the receptor fraction of the hippocampus were added a test compound and 0.5 nM of [^3H]; 8-hydroxy-dipropylaminotetralin; from tissue; host or cells: rat hippocampus membrane fraction
T1 sequence (P19327 1-422): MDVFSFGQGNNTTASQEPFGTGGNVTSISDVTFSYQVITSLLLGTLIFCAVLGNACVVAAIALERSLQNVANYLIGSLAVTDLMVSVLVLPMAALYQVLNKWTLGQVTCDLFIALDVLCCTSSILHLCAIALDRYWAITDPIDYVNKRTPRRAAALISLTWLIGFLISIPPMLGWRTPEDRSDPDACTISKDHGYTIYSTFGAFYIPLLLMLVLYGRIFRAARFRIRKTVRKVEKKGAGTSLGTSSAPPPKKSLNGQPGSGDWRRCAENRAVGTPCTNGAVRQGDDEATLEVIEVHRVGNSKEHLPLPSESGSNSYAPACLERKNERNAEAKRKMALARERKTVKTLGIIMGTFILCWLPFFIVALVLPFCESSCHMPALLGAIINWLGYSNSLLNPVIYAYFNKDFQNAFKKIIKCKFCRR

serotonin 2 receptor = biological target: T2, serotonin 2 receptor (Rattus norvegicus, UniProt P14842); experiment: Binding test on [3H] ketanserin, cerebral cortex receptor fraction; parameters: species or system SD rats; details: 0.3 nM [3H] ketanserin, 37° C. 15 min, read-out: 5HT2
T2 construct: To the receptor fraction of the cerebral cortex were added a test compound and 0.3 nM of [^3H] ketanserin; from tissue; host or cells: rat cerebral cortex membrane fraction
T2 sequence (P14842 whole entry): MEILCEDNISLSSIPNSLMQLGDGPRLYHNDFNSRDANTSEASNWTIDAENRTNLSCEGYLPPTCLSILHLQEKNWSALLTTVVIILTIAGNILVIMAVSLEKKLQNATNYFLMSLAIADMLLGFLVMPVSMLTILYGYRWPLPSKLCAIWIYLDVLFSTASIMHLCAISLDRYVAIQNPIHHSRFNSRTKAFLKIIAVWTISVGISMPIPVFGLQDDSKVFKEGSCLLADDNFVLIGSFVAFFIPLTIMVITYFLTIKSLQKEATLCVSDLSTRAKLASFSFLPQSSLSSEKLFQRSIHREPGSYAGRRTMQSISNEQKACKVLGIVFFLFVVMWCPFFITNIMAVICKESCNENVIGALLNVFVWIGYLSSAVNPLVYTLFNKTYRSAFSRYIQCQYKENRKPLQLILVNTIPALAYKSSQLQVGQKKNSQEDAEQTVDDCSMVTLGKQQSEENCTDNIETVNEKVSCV

melting point [°C]	Ki (serotonin 1A receptor) [nM]	Ki (serotonin 2 receptor) [nM]	SMILES
123 to 125	–	–	CCN1CCN(c2nc(-c3ccc(C(F)CCO)cc3)cc3cccnc23)CC1 (stereo not shown) (as salt: hydrochloride) [Example 249, 8-(1-ethylpiperazin-4-yl)-6-[4-(3-hydroxy-1-fluoropropyl)phenyl]-1,7-naphthyridine Dihydrochloride]
127.5 to 129	–	–	CCN1CCN(c2nc(-c3ccc(C(O)C4CCCCC4)cc3)cc3ccsc23)CC1 (stereo not shown) (as salt: hydrochloride) [Example 457, 7-(4-Ethylpiperazin-1-yl)-5-[4-(cyclohexylhydroxymethyl)phenyl]thieno[2,3-c]pyridine dihydrochloride]
–	2.99	5.92	CCN1CCN(c2nc(CNc3ccc(OC)cc3)cc3ccccc23)CC1 [Example 219, 1-(1-ethylpiperazin-4-yl)-3-(4-methoxyanilinomethyl)isoquinoline oxalate]
–	6.42	0.89	CCN1CCN(c2nc(-c3ccc(N4CCOCC4)nc3)cc3ccsc23)CC1 [Example 263, 5-[2-(4-morpholinyl)pyridin-5-yl]-7-(4-ethylpiperazin-1-yl)thieno[2,3-c]pyridine Hydrochloride]
–	55.2	3.3	CCN1CCN(c2nc(-c3ccc(OCCOC)c(F)c3)cc3ccccc23)CC1 [Example 367, 1-(4-ethylpiperazin-1-yl)-3-(3-fluoro-4-methoxyethoxyphenyl)isoquinoline dihydrochloride]
–	31.3	3.4	CCN1CCN(c2nc(-c3ccc([C@@H]4C[C@H](O)CCO4)cc3)cc3ccccc23)CC1 (relative stereo) [Example 401, 1-(4-Ethylpiperazin-1-yl)-3-[4-(cis-4-Hydroxytetrahydropyran-2-yl)Phenyl]Isoquinoline Dihydrochloride]
–	52.7	21.6	CCN1CCN(c2nc(-c3ccc(N(C)C)cc3)cc3ccccc23)CC1 [Example 66, 3-[4-(N,N-Dimethylamino)Phenyl]-1-(4-Ethylpiperazin-1-Yl)Isoquinoline Dihydrochloride]
–	45.5	9.08	CCN1CCN(c2nc(/C=C/c3ccc(OCCO)cc3)cc3ccccc23)CC1 [Example 198, 1-(1-Ethylpiperazin-4-Yl)-3-[(E)-4-(2-Hydroxyethoxy)Styryl]Isoquinoline Oxalate]
–	20.6	93.1	CCN1CCN(c2nc(-c3ccc(OC)cc3)cc3ccoc23)CC1 [Example 467, 7-(4-ethylpiperazin-1-yl)-5-(4-methoxyphenyl)furo[2,3-c]pyridine dihydrochloride]
–	59.7	29.2	CCCCC(O)c1ccc(-c2cc3ccsc3c(N3CCN(CC)CC3)n2)cc1 (stereo not shown) [Example 254, 7-(1-ethylpiperazin-4-yl)-5-[4-(1-hydroxypentyl)phenyl]thieno[2,3-c]pyridine Dihydrochloride]
–	61.2	1.78	CCN1CCN(c2nc(-c3ccc(OCCCC#N)cc3)cc3ccccc23)CC1 [Example 53, 3-[4-(3-Cyanopropoxy)Phenyl]-1-(4-Ethylpiperazin-1-Yl)Isoquinoline Hydrochloride]
–	11.7	5.3	CCCC(=O)NCc1ccc(-c2cc3ccccc3c(N3CCN(CC)CC3)n2)cc1 [Example 86, 3-(4-Propylcarbonylaminomethylphenyl)-1-(4-ethylpiperazin-1-yl)isoquinoline Hydrochloride]
–	23.2	2.66	CCN1CCN(c2nc(-c3ccc(CC(C)(C)CO)cc3)cc3ccsc23)CC1 [Example 442, 7-(4-ethylpiperazin-1-yl)-5-[4-(3-hydroxy-2,2-dimethylpropyl)phenyl]thieno[2,3-c]pyridine dihydrochloride]
–	60	11	CCN1CCN(c2nc(-c3ccc(OC)cc3)cc3ccccc23)CC1 [Example 10, 1-(4-Ethylpiperazin-1-yl)-3-(4-methoxyphenyl)isoquinoline]
–	6.98	20.9	CCN1CCN(c2nc(-c3ccc(O[C@H](C)CO)cc3)cc3sccc23)CC1 (stereo in doubt) [Example 463, 4-(4-ethylpiperazin-1-yl)-6-[4-(2-hydroxy-1-methylethoxy)phenyl]thieno[3,2-c]pyridine dihydrochloride]
–	97.3	13.8	CCN1CCN(c2nc(-c3ccc(C4=CCOCC4)cc3)cc3ccsc23)CC1 [Example 266, 5-[4-(5,6-dihydro-2H-pyran-4-yl)phenyl]-7-(4-ethylpiperazin-1-yl)thieno[2,3-c]pyridine Hydrochloride]
–	9.4	11.7	CCCNC(=O)Cc1ccc(-c2cc3ccccc3c(N3CCN(CC)CC3)n2)cc1 [Example 88, 3-(4-Propylaminocarbonylmethylphenyl)-1-(4-ethylpiperazin-1-yl)isoquinoline Hydrochloride]
–	6.3	10	CCCCNC(=O)Cc1ccc(-c2cc3ccccc3c(N3CCN(CC)CC3)n2)cc1 [Example 89, 3-(4-Butylaminocarbonylmethylphenyl)-1-(4-ethylpiperazin-1-yl)isoquinoline Hydrochloride]
–	22.1	36.7	CCN1CCN(c2nc(-c3cncc(CCCOC)c3)cc3ccccc23)CC1 [Example 140, 1-(1-Ethylpiperazin-4-yl)-3-[3-(3-Methoxypropyl)Pyridin-5-yl]Isoquinoline Oxalate]
–	14.1	61.9	CCN1CCN(c2nc(-c3ccc(OCC(N)=O)cc3)cc3ccccc23)CC1 [Example 338, 1-(4-ethylpiperazin-1-yl)-3-(4-carbamoylmethoxyphenyl)isoquinoline dihydrochloride]
–	13.5	5.5	CCN1CCN(c2nc(-c3ccc(CCC(C)(C)O)nc3)cc3ccccc23)CC1 [Example 138, 1-(1-Ethylpiperazin-4-yl)-3-[2-(3-Hydroxy-3-Methylbutyl)Pyridin-5-yl]Isoquinoline Oxalate]
–	17.2	17.3	CCC(=O)Nc1ccc(-c2cc3ccccc3c(N3CCN(CC)CC3)n2)cc1 [Example 69, 3-(4-Ethylcarbonylaminophenyl)-1-(4-Ethylpiperazin-1-Yl)Isoquinoline Hydrochloride]

SMILES	melting point [°C]	Ki (serotonin 1A receptor) [nM]	Ki (serotonin 2 receptor) [nM]
CCN1CCN(c2nc(-c3ccc(C(O)CC(C)(C)O)cc3)cc3ccccc23)CC1 (stereo not shown) [Example 25, 3-[4-(1,3-dihydroxy-3-methylbutyl)phenyl]-1-(4-ethylpiperazin-1-yl)isoquinoline]	–	21.5	3.4
CCN1CCN(c2nc(-c3ccc(CCCF)nc3)cc3ccccc23)CC1 [Example 133, 1-(1-Ethylpiperazin-4-yl)-3-[2-(3-Fluoropropyl)Pyridin-5-yl]Isoquinoline]	–	2.9	6.2
CCN1CCN(c2nc(CCc3cccc(OCCO)c3)cc3ccccc23)CC1 [Example 108, 1-(1-Ethylpiperazin-4-yl)-3-[3-(2-hydroxyethoxy)phenethyl]isoquinoline]	–	157	33.8
CCN1CCN(c2nc(-c3cccc(CCCO)c3)cc3ccccc23)CC1 [Example 418, 1-(4-ethylpiperazin-1-yl)-3-[3-(3-hydroxypropyl)phenyl]isoquinoline]	–	54.5	17.4
CCN1CCN(c2nc(-c3ccc(CCCO)nc3)cc3ccccc23)CC1 [Example 135, 1-(1-Ethylpiperazin-4-yl)-3-[2-(3-Hydroxypropyl)Pyridin-5-yl]Isoquinoline]	–	3.4	18.9
